Assay results published in article PMC5384962, “First-in-human studies of seletalisib, an orally bioavailable small-molecule PI3Kδ inhibitor for the treatment of immune and inflammatory diseases” (European Journal of Clinical Pharmacology, 2017).

Experiments:
[1] = Study-2 safety/tolerability (adverse events)
Experimental: In total, 60 subjects were enrolled into five dose cohorts (n = 12 in each), and subjects were randomised (3:1) to receive seletalisib or placebo. Study-2 included initial dose cohorts of 30, 60 and 90 mg once-daily plus additional dose cohorts of 30 mg twice-daily and 45 mg once-daily.
Adverse events (AEs), serious AEs (SAEs), routine clinical laboratory parameters, vital signs and ECGs were monitored throughout the study periods and for ≤7 days post-administration of final-dose of seletalisib/placebo. The potential for seletalisib to cause gastrointestinal (GI) tract adverse effects was assessed by careful monitoring of subject reports of AEs such as abdominal pain, bloating, nausea, vomiting and alteration of bowel function (e.g. diarrhoea, constipation or bleeding). A formal safety review was conducted before each dose escalation. In Study-1 (Part-B), the potential for seletalisib to interfere with insulin signalling was assessed by monitoring blood glucose and C-peptide levels as part of the standard laboratory tests and by performance of oral glucose tolerance tests, measuring glucose and C-peptide levels, pre-dose and during exposure in all cohorts.
In each study, the primary population for analysis was the full analysis set (FAS), which comprised all subjects who had received ≥1 dose of seletalisib or placebo. PK analysis was performed on the PK per-protocol set (PK-PPS), which was a subset of the FAS consisting of subjects with no important protocol deviations likely to affect PK variables who received seletalisib; subjects who received placebo were excluded from this analysis. In Study-1 and Study-2, sample sizes of 57 and 36 subjects, respectively, were considered sufficient to permit assessment of the safety and tolerability of seletalisib and were not based on statistical considerations of power and sample size. In Study-1 (Part-A), a panel size of 15 subjects was selected to achieve good estimates of the PK/PD parameters.

psoriatic lesional skin = assay: Study-1 Part-B exploratory PD in subjects with mild-to-moderate psoriasis (lesion scores, lesional skin biopsies); assay type: in vivo, human; conditions: six subjects with psoriasis
Experimental: To enable assessment of target engagement, the following exploratory PD assessments were performed at various time points prior to and following study drug administration in those subjects with mild-to-moderate psoriasis. Size and appearance of the psoriatic lesion of interest (selected at screening) were assessed by lesion severity score and lesion area. Total affected area (percentage of BSA) and Physician’s Global Assessment were assessed to evaluate overall disease severity. Histological assessments of skin biopsies (6 mm) were performed by immunofluorescent microscopy of frozen sections of lesional skin, except for haematoxylin and eosin staining and IL-17 staining which were performed on formalin fixed paraffin embedded sections. Numbers of T cells (CD3), Langerhans cells (CD1a), neutrophils (MPO) and dermal dendritic cells (CD11c) were determined.  Fig. 3 Cellular responses in lesional biopsies. Lesional biopsies were taken on days 4 and 14 from each patient, and subsequently fixed, sectioned and, using immunofluorescence, stained for CD11c (dendritic cells), CD1a (Langerhans cells), CD3 (T cells) and myeloperoxidase (MPO; neutrophils). Cells were identified using a nuclear stain. Images acquired on a slide scanner were analysed using Definiens software and, following thresholding, positive cells identified. The number of positive cells per square millimeter was calculated and the fold-change in cell density from baseline was calculated. Data are mean ± SD (placebo, n = 3; treated, n = 6)

[2] = 15 mg, relative to placebo, lesional biopsies

In the case of [O-][n+]1cccc(-c2nc3c(Cl)cccc3cc2[C@@H](Nc2ncnc3cccnc23)C(F)(F)F)c1 [Seletalisib, seletalisib], the Deaths ([1]; Study-2, 30 mg BID) was 0 n (%), the Deaths ([1]; Study-2, 30 mg QD) was 0 n (%) and the Deaths ([1]; Study-2, 45 mg QD) was 0 n (%). The Deaths ([1]; Study-2, 60 mg QD) was 0 n (%), the Deaths ([1]; Study-2, 90 mg QD) was 0 n (%) and the Deaths ([1]; Study-2, seletalisib total) was 0 n (%). For the same compound, the “Any AE, number of events […]” value ([1]; human, in vivo) was 169, the “number of rash-related AEs” value ([1]; human, in vivo) was 18 and the “number of subjects with AEs relating to GI disturbance” value ([1]; human, in vivo) was 10. For the same compound, the “number of subjects with rash-related AEs” value ([1]; human, in vivo) was 12, the “subjects who discontinued the study due to an AE” value ([1]; human, in vivo) was 13.3% and the “subjects who experienced an AE” value ([1]; human, in vivo) was 71.1%. The “subjects with SAEs” value ([1]; human, in vivo) was 4.4%, the subjects with headache ([1]; human, in vivo) was 24.4% and the subjects with rash ([1]; human, in vivo) was 24.4%. For the same compound, the Abdominal discomfort ([1]; human, in vivo, 14 days) was 2 (4.4) n (%), the Abdominal pain ([1]; human, in vivo, 14 days) was 5 (11.1) n (%) and the “Any AE” value ([1]; human, in vivo, 14 days) was 32 (71.1) n (%). The “Dermatitis, contact” value ([1]; human, in vivo, 14 days) was 4 (8.9) n (%), the Diarrhoea ([1]; human, in vivo, 14 days) was 3 (6.7) n (%) and the “Discontinuations due to AEs” value ([1]; human, in vivo, 14 days) was 6 (13.3) n (%). The “Discontinuations due to AEs, number of events […]” value ([1]; human, in vivo, 14 days) was 6, the Dizziness ([1]; human, in vivo, 14 days) was 5 (11.1) n (%) and the “Drug-related AEs” value ([1]; human, in vivo, 14 days) was 24 (53.3) n (%). For the same compound, the “Drug-related AEs, number of events […]” value ([1]; human, in vivo, 14 days) was 136, the Dry mouth ([1]; human, in vivo, 14 days) was 2 (4.4) n (%) and the Dysgeusia ([1]; human, in vivo, 14 days) was 5 (11.1) n (%). The Furuncle ([1]; human, in vivo, 14 days) was 2 (4.4) n (%), the Headache ([1]; human, in vivo, 14 days) was 11 (24.4) n (%) and the Initial insomnia ([1]; human, in vivo, 14 days) was 2 (4.4) n (%). The Nausea ([1]; human, in vivo, 14 days) was 6 (13.3) n (%), the Oropharyngeal pain ([1]; human, in vivo, 14 days) was 6 (13.3) n (%) and the Rash ([1]; human, in vivo, 14 days) was 11 (24.4) n (%). For the same compound, the “Rash, generalised” value ([1]; human, in vivo, 14 days) was 3 (6.7) n (%), the Regurgitation ([1]; human, in vivo, 14 days) was 2 (4.4) n (%) and the “Serious AEs” value ([1]; human, in vivo, 14 days) was 2 (4.4) n (%). The “Serious AEs, number of events […]” value ([1]; human, in vivo, 14 days) was 2, the “Severe AEs” value ([1]; human, in vivo, 14 days) was 3 (6.7) n (%) and the “Severe AEs, number of events […]” value ([1]; human, in vivo, 14 days) was 3. The Somnolence ([1]; human, in vivo, 14 days) was 2 (4.4) n (%), the Toothache ([1]; human, in vivo, 14 days) was 2 (4.4) n (%) and the Hypoaesthesia oral ([1]; human, in vivo, po, 14 days) was 2 (4.4) n (%). For the same compound, the “number of AEs relating to GI disturbance” value ([1]; in vivo) was “Thirty-two”, the “number of infection-related AEs” value ([1]; in vivo) was “four” and the “lesion severity score, total affected area (% BSA), lesion area, Physician’s Global Assessment” value (psoriatic lesional skin; 15 mg for 14 days) was “improvements in these parameters were seen in some of the six subjects”. For the same compound, the “numbers of dermal inflammatory cells (CD3+, CD11c+ and MPO+ cells)” value (psoriatic lesional skin; [2]) was “trend towards reduced numbers” and the “resident Langerhans cells (CD1a+ cells)” value (psoriatic lesional skin; [2]) was “return of the resident Langerhans cells”.
